Assay results from patent US8759366B2, “Aminopyrimidines as SYK inhibitors” (Merck Sharp & Dohme Corp., priority 2009, dated 2014).

Target: rhSYK (Homo sapiens (Human), UniProt P43405)
Conditions: read-out: rhSYK activity

IC50 [µM]	Structure (SMILES)
< 0.1	CC(C)(CO)c1ncc(-c2cccc(Nc3nccc(C(F)(F)F)n3)c2)s1 [Example 21, 2-methyl-2-[5-(3-{[4-(trifluoromethyl)pyrimidin-2-yl]amino}phenyl)-1,3-thiazol-2-yl]propan-1-ol]
< 0.1	O=C(Nc1cc(Nc2nccc(C(F)(F)F)n2)cc(-c2cnc(C3(O)CCC3)s2)c1)NC1CCCC1 [Example 19, 1-cyclopentyl-3-(3-[2-(1-hydroxycyclobutyl)-1,3-thiazol-5-yl]-5-{[4-(trifluoromethyl)pyrimidin-2-yl]amino}phenyl)urea]
< 0.1	CC(O)(c1ncc(-c2cccc(Nc3nccc(C(F)(F)F)n3)c2)s1)C1CCNCC1 (stereo not shown) [Example 15(2), 1-(piperidin-4-yl)-1-[5-(3-{[4-(trifluoromethyl)pyrimidin-2-yl]amino}phenyl)-1,3-thiazol-2-yl]ethanol]
< 0.1	Cc1cc(Nc2nccc(C(F)(F)F)n2)cc(-c2cnc(C3(O)C[C@H]4CC(CC(=O)O)C[C@H]4C3)s2)c1 (stereo partly shown) [Example 4B-27]
< 0.1	CCOC(=O)C1CCC(O)(c2ncc(-c3cc(C)cc(Nc4nccc(C(F)(F)F)n4)c3)s2)CC1 (mixture of isomers) [Example 32, ethyl 4-hydroxy-4-[5-(3-methyl-5-{[4-(trifluoromethyl)pyrimidin-2-yl]amino}phenyl)-1,3-thiazol-2-yl]cyclohexanecarboxylate]
0.1 to 1	Cc1cc(Nc2nccc(C(F)(F)F)n2)cc(-c2cnc(C(C)(O)c3ccc(C(C)(C)O)cc3)s2)c1 (stereo not shown) [Example 9-1]
< 0.1	Cc1cc(Nc2nccc(C(F)(F)F)n2)cc(-c2cnc(C3(NS(N)(=O)=O)COC3)s2)c1 [Example 63, N-{3-[5-(3-methyl-5-{[4-(trifluoromethyl)pyrimidin-2-yl]amino}phenyl)-1,3-thiazol-2-yl]oxetan-3-yl}sulfuric diamide]
< 0.1	Cc1cc(Nc2nccc(C(F)(F)F)n2)cc(-c2cnc(C3(O)CCC4(C)C(=O)CCC4(O)C3)s2)c1 (stereo not shown) [Example 4B-26]
< 0.1	Cc1cc(Nc2nccc(C(F)(F)F)n2)cc(-c2cnc(C(O)C(F)(F)F)s2)c1 (single isomer, unassigned) [Example 6-4]
1 to 10	Fc1ccc(Nc2nccc(C(F)(F)F)n2)cc1Br [N-(3-bromo-4-fluorophenyl)-4-(trifluoromethyl)pyrimidin-2-amine]
< 0.1	Cc1cc(Nc2nccc(C)n2)cc(-c2cnc(C3(O)CCC(CN)CC3)s2)c1 (stereo not shown) [Example 4C-2]
0.1 to 1	CC1(C)C(O)C(C)(C)C1(O)c1ncc(-c2cccc(Nc3nccc(C(F)(F)F)n3)c2)s1 (stereo not shown) [Example 6-10]
< 0.1	Cc1cc(Nc2nccc(C(F)(F)F)n2)cc(-c2cnc(C(C)(C)O)s2)c1 [Example 4, 2-[5-(3-methyl-5-{[4-(trifluoromethyl)pyrimidin-2-yl]amino}phenyl)-1,3-thiazol-2-yl]propan-2-ol]
< 0.1	Nc1cc(Nc2nccc(C(F)(F)F)n2)cc(-c2cnc(C3(O)CCC3)s2)c1 [Example 17, 1-[5-(3-amino-5-{[4-(trifluoromethyl)pyrimidin-2-yl]amino}phenyl)-1,3-thiazol-2-yl]cyclobutanol]
< 0.1	Cc1cc(Nc2nccc(C(F)(F)F)n2)cc(-c2cnc([C@]3(O)CC[C@@H](c4noc(=O)[nH]4)CC3)s2)c1 [Example 39, 3-{cis-4-Hydroxy-4-[5-(3-methyl-5-{[4-(trifluoromethyl)pyrimidin-2-yl]amino}phenyl)-1,3-thiazol-2-yl]cyclohexyl}-1,2,4-oxadiazol-5(4H)-one]
< 0.1	Cc1cc(Nc2nccc(C)n2)cc(-c2cnc(C3(O)C4CC5CC3CC(O)(C5)C4)s2)c1 (stereo not shown) [Example 4B-29]
< 0.1	Cc1cc(Nc2nccc(C(F)(F)F)n2)cc(-c2cnc(C3CCC(C(=O)O)CC3)s2)c1 (stereo not shown) [Example 36, 4-[5-(3-methyl-5-{[4-(trifluoromethyl)pyrimidin-2-yl]amino}phenyl)-1,3-thiazol-2-yl]cyclohexanecarboxylic acid]
< 0.1	Cc1cc(Nc2nccc(C(F)(F)F)n2)cc(-c2cnc(C3(O)CCN(C4CC4)CC3)s2)c1 [4D-8]
< 0.1	Cc1cc(Nc2nccc(C)n2)cc(-c2cnc(C3(C)OC(=O)CC3(C)C)s2)c1 (stereo not shown) [Example 4B-58]
< 0.1	CCOC(=O)N1CCC(O)(c2ncc(-c3cccc(Nc4nccc(C(F)(F)F)n4)c3)s2)CC1 [4D-4]
< 0.1	Cc1cc(Nc2nccc(C(F)(F)F)n2)cc(-c2cnc(C3(NS(C)(=O)=O)COC3)s2)c1 [Example 60, N-{3-[5-(3-methyl-5-{[4-(trifluoromethyl)pyrimidin-2-yl]amino}phenyl)-1,3-thiazol-2-yl]-oxetan-3-yl}methanesulfonamide]
0.1 to 1	OC1(c2ncc(-c3cc(Nc4nccc(C(F)(F)F)n4)cc(C(F)(F)F)c3)s2)CCC1 [Example 2, 1-{5-[3-(trifluoromethyl)-5-{[4-(trifluoromethyl)pyrimidin-2-yl]amino}phenyl]-1,3-thiazol-2-yl}cyclobutanol]
0.1 to 1	Cc1cc(Nc2nccc(C(F)(F)F)n2)cc(-c2cnc(C3(O)CCN(C(=O)OC(C)(C)C)C(C(F)(F)F)C3)s2)c1 (stereo not shown) [4D-15]
< 0.1	OC1(c2ncc(-c3cc(Nc4nccc(C(F)(F)F)n4)cc(C(F)F)c3)s2)CCC1 [Example 28, 1-{5-[3-(difluoromethyl)-5-{[4-(trifluoromethyl)pyrimidin-2-yl]amino}phenyl]-1,3-thiazol-2-yl}cyclobutanol]

IC50 [µM]	Structure (SMILES)
< 0.1	O=C(c1ncc(-c2cccc(Nc3nccc(C(F)(F)F)n3)c2)s1)C(F)(F)F [Example 6-1]
0.1 to 1	Cc1cc(Nc2ncc(Cl)cn2)cc(-c2cnc(C(O)(CO)CO)s2)c1 [Ex 5-20]
< 0.1	Cc1cc(Nc2nccc(C(F)(F)F)n2)cc(-c2cnc(C3(C)OC(=O)CC3(C)C)s2)c1 (stereo not shown) [Example 4B-61]
< 0.1	Cc1cc(Nc2nccc(C(F)(F)F)n2)cc(-c2cnc(C3(O)C=CCCCC3)s2)c1 (stereo not shown) [Example 4B-55]
0.1 to 1	O=C1C[C@@H]2C[C@@](O)(c3ncc(-c4cccc(Nc5nccc(C(F)(F)F)n5)c4)s3)C[C@@H]2C1 [Example 4B-7]
< 0.1	Cc1cc(Nc2nccc(C(F)(F)F)n2)cc(-c2cnc(C(NC(=O)NC(N)=O)(C3CC3)C3CC3)s2)c1 [Example 65, N-{dicyclopropyl[5-(3-methyl-5-{[4-(trifluoromethyl)pyrimidin-2-yl]amino}phenyl)-1,3-thiazol-2-yl]methyl}dicarbonimidic diamide]
< 0.1	CC(O)(CO)c1ncc(-c2cccc(Nc3nccc(C(F)(F)F)n3)c2)s1 (stereo not shown) [Ex 5-1]
0.1 to 1	CC(C)N1CCC(O)(c2ncc(-c3cccc(Nc4nccc(C(F)(F)F)n4)c3)s2)CC1 [4D-5]
< 0.1	Cc1cc(Nc2nccc(C)n2)cc(-c2cnc(C3(O)CCC(CO)CC3)s2)c1 (stereo not shown) [Example 4C-9]
< 0.1	CCNC(=O)Nc1cc(Nc2nccc(C(F)(F)F)n2)cc(-c2cnc(C3CCC(C(N)=O)CC3)s2)c1 (single isomer, unassigned) [Example 20(2), 4-[5-(3-[(ethylcarbamoyl)amino]-5-{[4-(trifluoromethyl)pyrimidin-2-yl]amino}phenyl)-1,3-thiazol-2-yl]cyclohexanecarboxamide]
< 0.1	OC(c1ncc(-c2cc(Nc3nccc(C(F)(F)F)n3)cc(N3CCOCC3)c2)s1)(C1CC1)C1CC1 [Example 24, dicyclopropyl{5-[3-(morpholin-4-yl)-5-{[4-(trifluoromethyl)pyrimidin-2-yl]amino}phenyl]-1,3-thiazol-2-yl}methanol]
< 0.1	Cc1cc(Nc2nccc(C(F)(F)F)n2)cc(-c2cnc(C3(O)CCC(C4(N)CC4)CC3)s2)c1 (stereo not shown) [Example 4C-19]
< 0.1	Cc1cc(Nc2nccc(C(F)(F)F)n2)cc(-c2cnc(C(C)(O)C(C)(C)O)s2)c1 (stereo not shown) [Ex 5-4]
< 0.1	OC(c1ncc(-c2cccc(Nc3nccc(C(F)(F)F)n3)c2)s1)C1CC1 (stereo not shown) [Example 4A-5, cyclopropyl[5-(3-{[4-(trifluoromethyl)pyrimidin-2-yl]amino}phenyl)-1,3-thiazol-2-yl]methanol]
0.1 to 1	CC(C)(C)OC(=O)N1CCC(C(C)(O)c2ncc(-c3cccc(Nc4nccc(C(F)(F)F)n4)c3)s2)CC1 (stereo not shown) [Example 15(1), tert-butyl 4-{1-hydroxy-1-[5-(3-{[4-(trifluoromethyl)pyrimidin-2-yl]amino}phenyl)-1,3-thiazol-2-yl]ethyl}piperidine-1-carboxylate]
< 0.1	Cc1cc(Nc2nccc(C)n2)cc(-c2cnc(C3(O)CCNC(=O)CC3)s2)c1 (stereo not shown) [4D-7]
< 0.1	Cc1cc(Nc2nccc(C)n2)cc(-c2cnc(C3(O)CCC(C)(CC(=O)O)CC3)s2)c1 (single isomer, unassigned) [Example 4C-11]
< 0.1	Cc1cc(Nc2nccc(C(F)(F)F)n2)cc(-c2cnc(C3(O)CCCC(C)(CC(=O)O)C3)s2)c1 (stereo not shown) [Example 4C-23]
< 0.1	Cc1cc(Nc2nccc(C(F)(F)F)n2)cc(-c2cnc(C3(O)CCN(c4ccc(F)cc4)CC3)s2)c1 [4D-12]
< 0.1	CC(=O)Nc1cc(Nc2nccc(C(F)(F)F)n2)cc(-c2cnc(C3(O)CCC3)s2)c1 [Example 16, N-(3-[2-(1-hydroxycyclobutyl)-1,3-thiazol-5-yl]-5-{[4-(trifluoromethyl)pyrimidin-2-yl]amino}phenyl)acetamide]
< 0.1	Cc1cc(Nc2nccc(C(F)(F)F)n2)cc(-c2cnc(C3(O)C[C@H]4CC(=O)C[C@H]4C3)s2)c1 (stereo partly shown) [Example 4B-20]
< 0.1	Cc1cc(Nc2nccc(C(F)(F)F)n2)cc(-c2cnc(C3(O)CCC(C4(N)CC4)CC3)s2)c1 (stereo not shown) [Example 4C-20]
0.1 to 1	CCOC(=O)C1CCC(O)(c2ncc(-c3cc(C)cc(Nc4nccc(C)n4)c3)s2)CC1c1ccccc1C (stereo not shown) [Example 4C-27]
0.1 to 1	OC1(c2ncc(-c3cc(Cl)cc(Nc4nccc(C(F)(F)F)n4)c3)s2)CCC1 [Example 3, 1-[5-(3-chloro-5-{[4-(trifluoromethyl)pyrimidin-2-yl]amino}phenyl)-1,3-thiazol-2-yl]cyclobutanol]

Structure (SMILES)	IC50 [µM]
CCOC(=O)C1CCC(O)(c2ncc(-c3cc(C)cc(N(C(=O)OC(C)(C)C)c4nccc(C(F)(F)F)n4)c3)s2)CC1 (stereo not shown) [Intermediate 119, Ethyl 4-[5-(3-{(tert-butoxycarbonyl)[4-(trifluoromethyl)pyrimidin-2-yl]amino}-5-methylphenyl)-1,3-thiazol-2-yl]-4-hydroxycyclohexanecarboxylate]	1 to 10
